Experimental findings from PMC3674988, “Scrutinizing MHC-I Binding Peptides and Their Limits of Variation” (PLoS Computational Biology, 2013) are described below.

In the test the test system is H-2K^b:IgG fusion protein. As to the kind of experiment: Thermal denaturation assay, direct binding of SIINFEKL fragments. The arrangement: species or system mouse. Particulars: normalized fluorescence melting curves, first derivative; vs NoLigand; 100 µM peptide. The protocol: Thermal denaturation studies were conducted using a StepOnePlus real-time PCR system (Applied Biosystems) with MicroAmp optical 96-well plates (Applied Biosystems cat. no. N8010560). Wells were loaded with 10 µl of H-2K^b:IgG fusion protein solution (protein conc. = 0.5 mg×ml^−1; BD Biosciences cat. no. 550750) – respectively 10 µl of PBS buffer (pH 7.36) for ligand-only controls – 2 µl of peptide or peptide fragments, 2 µl of 10× SYPRO Orange (SigmaAldrich cat. no. S5692) and 6 µl (8 µl for negative controls) to yield a total volume of 20 µl per well. Final concentrations calculated to 1 µM for H-2K^b:IgG fusion protein, 100 µM for the peptides/peptide fragments and 1× SYPRO Orange. Fluorescence intensity was measured using the Applied Biosystems ROX preset with respective excitation/emission maxima at 587/607 nm, while heating the wells continuously from 25°C to 99°C with a ramp rate of 1% (temperature increase of 1.5°C per minute). Results were recorded by StepOne 2.2.2 software and analyzed by identifying the local minimum of the derivative of the melting curve for the segment relevant for denaturation of the peptide-binding superdomain (α1,2) of the MHC-I heavy chain.
On to IINFEKL [synthesized SIINFEKL fragment], for which the “Melting point shift of peptide-MHC-I complex (melting curves)” value (shortened to “Melting point shift”) is on record as “significant melting point shift”.

SIINF [synthesized SIINFEKL fragment]: the “Melting point shift” value is “significant melting point shift”.

SIINFEK [synthesized SIINFEKL fragment]: the “Melting point shift” value is reported as “significant melting point shift”.

For the substance INFE [synthesized SIINFEKL fragment], the “Melting point shift” value is given as “no melting point shift”.

In the case of SIINFE [synthesized SIINFEKL fragment], the “Melting point shift” value is given as “significant melting point shift”.

Take INFEKL [synthesized SIINFEKL fragment]: the “Melting point shift” value is listed as “significant melting point shift”.
